According to ChEMBL document CHEMBL1201862, “PubChem BioAssay data set” (2004):
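Compound exposure: 48 hours, 5 concentrations, 96-well plates. GI50 marks 50% less growth.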 Activity calls are given as the source filed them. Rule as the data show it: active = GI50 up to about 1.1 µM and inactive = higher.

Key:
Assay in all cases: NCI-60 cell line screen, 48 h
[1] = system: ACHN
[2] = system: UACC-257
[3] = system: SF-295
[4] = system: RPMI-8226
[5] = system: UO-31
[6] = system: HT-29
[7] = system: U-251
[8] = system: HCT-116
[9] = system: SF-268
[10] = system: MDA-N
[11] = system: HOP-62
[12] = system: IGROV-1
[13] = system: PC-3
[14] = system: RXF 393
[15] = system: A498
[16] = system: MDA-MB-231
[17] = system: SW-620
[18] = system: BT-549
[19] = system: SK-MEL-5
[20] = system: MCF7

Measured: GI50

COC(=O)C(=O)C(C(=O)C(=O)Nc1ccc(Cl)c(Cl)c1)c1nc2ccc(C(=O)c3ccccc3)cc2nc1O (stereo not given)
inactive: [1] 46.5 µM | [2] > 100 µM | [3] 49.4 µM | [4] 40.2 µM | [5] 26.4 µM | [6] 44.2 µM | [7] 71 µM | [8] 61.4 µM | [9] 51.4 µM | [10] 42.9 µM | [11] 41.6 µM | [12] 33.5 µM | [13] 38.1 µM | [14] 38.4 µM | [15] > 100 µM | [16] 51.3 µM | [17] 46.9 µM | [18] > 100 µM | [19] > 100 µM | [20] 35.2 µM

CCN(CC)CCN(C)CCc1ccc(Br)cc1
inactive: [1] > 100 µM | [2] 37.6 µM | [3] 51.5 µM | [4] > 100 µM | [5] 83.8 µM | [6] 24.9 µM | [7] 41.4 µM | [8] 59.8 µM | [9] > 100 µM | [10] 29.7 µM | [11] 29.7 µM | [12] > 100 µM | [13] 54 µM | [14] 38.5 µM | [15] 13.8 µM | [16] 54.3 µM | [17] 54.8 µM | [18] 42.5 µM | [19] 17.2 µM | [20] 48.8 µM

c1ccc(/N=C2/SC(c3ccccc3)(c3ccccc3)c3ccccc32)cc1
inactive: [1] > 100 µM | [2] > 100 µM | [3] > 100 µM | [4] > 100 µM | [5] > 100 µM | [6] > 100 µM | [7] 10.4 µM | [8] 64.3 µM | [9] > 100 µM | [10] > 100 µM | [11] > 100 µM | [12] > 100 µM | [13] > 100 µM | [14] > 100 µM | [15] > 100 µM | [16] > 100 µM | [17] > 100 µM | [18] > 100 µM | [19] 57.8 µM | [20] 87.7 µM

N=C(N)SCc1ccc2c(c1)Sc1ccccc1O2
inactive: [1] 4.47 µM | [2] 5.82 µM | [3] 10.5 µM | [4] 8.05 µM | [5] 3.37 µM | [6] 2.9 µM | [7] 18.4 µM | [8] 5.86 µM | [9] 13.1 µM | [10] 3.93 µM | [11] 14.1 µM | [12] 3.34 µM | [13] 4.74 µM | [14] 3.61 µM | [15] 15.6 µM | [16] 10.3 µM | [17] 5.85 µM | [18] 3.62 µM | [19] 1.57 µM | [20] 4.53 µM
